Measured values: US20240174696A1, “2,8-DIAZASPIRO[4.5]DECANE COMPOUNDS” (Genentech, Inc., priority 2021, published 2024)
pEC50, pKi: −log10 of the molar value.

Key:
[1] = molecular target: Human LATS2 catalytic domain (Homo sapiens (Human), UniProt Q9NRM7); assay: LATS2 High ATP HTRF Assay; assay type: biochemical; details: no asterisk: LATS2 High ATP HTRF Assay, 5000 μM ATP, 0.05 nM LATS2
Method in brief: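 LATS2 catalytic domain (G553-V1088) co-purified with Mob1b, 0.05 nM, pre-incubated 10 min with compound, then 5000 μM ATP and 0.5 μM STK S1 peptide in HEPES pH7.2 for 2 h at room temperature. HTRF 665/620 nm read; IC50 by four-parameter fit, Ki via Cheng-Prusoff with ATP Km 105 μM.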

[2] = test system: TAZ nuclear translocation in SW1990 cells; assay: TAZ Nuclear Translocation Assay; assay type: cell-based; details: Homo sapiens, 4 hours
Description: The SW1990 cells (ATCC, CRL2172) were seeded at 5000 cells/well by adding 30 μL/well of cells in RPMI1640, 10% FBS, 2 mM glutamine culture media to a 384-well plate (Greiner 781091). The cells were incubated overnight at 37° C. Next day, test compounds were directly added to the cells using the Echo Liquid Handler (Labcyte), incubate at 37° C. for 4 hours. The cells were fixed with 4% paraformaldehyde and incubate for 20 minutes at room temperature. After washing three times with 100 μL PBS, 0.5% Triton X-100 was added to permeabilize the cells, incubate at room temperature for 5 minutes, following by washing the cells three times with PBS. 3% BSA was added to the cells, incubate for one hour at room temperature, following by washing three times with PBS. 50 μL of 1:750 diluted rabbit Anti-TAZ (Cell signaling D316D) in 3% BSA was added to the cells, incubate at 4° C. overnight. Next day, after washing the cells three times with PBS, 50 μL of 1:1250 diluted donkey anti-Rabbit, Alexa Fluor 488 (Invitrogen A21206) and 1:6250 diluted Hoechst 33342 (Molecular Probes H-21492) in 3% BSA was added to the cells, incubate at room temperature for one hour. The cells were washed three times with PBS, then image with the CellInsight CX7 High-Content Imager. The ratio of nuclear mean fluorescence intensity and cytoplasmic ring region mean fluorescence intensity was calculated. The % inhibition was normalized using DMSO as 0% inhibition and an inhibitor control as 100% inhibition. The EC50 values were calculated by fitting the % inhibition with a nonlinear four-parameter logistical equation.

Chain of Human LATS2 catalytic domain (Q9NRM7 553-1088): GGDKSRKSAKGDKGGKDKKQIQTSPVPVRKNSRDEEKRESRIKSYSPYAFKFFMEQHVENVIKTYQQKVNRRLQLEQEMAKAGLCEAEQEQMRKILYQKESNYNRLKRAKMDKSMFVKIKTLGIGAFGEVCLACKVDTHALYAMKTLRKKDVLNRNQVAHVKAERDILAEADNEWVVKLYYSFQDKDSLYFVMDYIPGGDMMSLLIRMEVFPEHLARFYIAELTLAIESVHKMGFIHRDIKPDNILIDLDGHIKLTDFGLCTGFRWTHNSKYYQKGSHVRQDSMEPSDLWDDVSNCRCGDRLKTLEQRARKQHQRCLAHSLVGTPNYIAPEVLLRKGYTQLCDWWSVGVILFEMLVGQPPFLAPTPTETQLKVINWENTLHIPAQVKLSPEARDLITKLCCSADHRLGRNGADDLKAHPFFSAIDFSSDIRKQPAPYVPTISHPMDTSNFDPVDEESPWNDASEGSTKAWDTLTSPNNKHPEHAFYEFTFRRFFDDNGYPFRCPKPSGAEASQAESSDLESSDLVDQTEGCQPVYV
Chain of Human LATS2 catalytic domain (Q7L9L4 whole entry partner, the tested form may be a part): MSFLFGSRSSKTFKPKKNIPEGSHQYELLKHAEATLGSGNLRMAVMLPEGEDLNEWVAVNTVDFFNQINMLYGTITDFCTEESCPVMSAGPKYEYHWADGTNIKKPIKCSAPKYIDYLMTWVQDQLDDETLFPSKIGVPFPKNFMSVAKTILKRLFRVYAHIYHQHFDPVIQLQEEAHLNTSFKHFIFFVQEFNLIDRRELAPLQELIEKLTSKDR

| Compound | pKi [1] | pEC50 [2] |
| --- | --- | --- |
| Cc1[nH]ncc1-c1nc(N2CCC3(CCN(CC(F)F)C3)CC2)c2ccncc2n1 [Example 220, 4-(2-(2,2-difluoroethyl)-2,8-diazaspiro[4.5]decan-8-yl)-2-(3-methyl-1H-pyrazol-4-yl)pyrido[3,4-d]pyrimidine] | 10.13 | 6.18 |
| Fc1cnccc1-c1nc(N2CCC3(CCNC3)CC2)c2ccncc2n1 [Compound 182, 2-(3-fluoropyridin-4-yl)-4-(2,8-diazaspiro[4.5]decan-8-yl)pyrido[3,4-d]pyrimidine] | 8.65 | 5.57 |
| OC1CNCC12CCN(c1nc(-c3ccncc3)nc3cnccc13)CC2 (stereo not drawn) [Compound 187, 8-(2-(pyridin-4-yl)pyrido[3,4-d]pyrimidin-4-yl)-2,8-diazaspiro[4.5]decan-4-ol] | 8.84 | < 5.00 |
| CN1CCC2(CCN(c3nc(-c4ccncc4)nc4cnc(Cn5cc(Cl)cn5)cc34)CC2)C1 [Compound 189, 6-((4-chloro-1H-pyrazol-1-yl)methyl)-4-(2-methyl-2,8-diazaspiro[4.5]decan-8-yl)-2-(pyridin-4-yl)pyrido[3,4-d]pyrimidine] | 9.12 | 6.27 |
| O[C@@H]1CC[C@@H]1N1CCC2(CCN(c3nc(-c4ccncc4)nc4cnccc34)CC2)C1 (single isomer, unassigned) [Compound 180] | 8.86 | 5.89 |
| CC1NCCC12CCN(c1nc(-c3ccncc3)nc3cnccc13)CC2 (stereo not drawn) [Compound 166, 4-(1-methyl-2,8-diazaspiro[4.5]decan-8-yl)-2-(pyridin-4-yl)pyrido[3,4-d]pyrimidine] | 8.57 | 5.74 |
| O[C@@H]1CC[C@H]1N1CCC2(CCN(c3nc(-c4ccncc4)nc4cnccc34)CC2)C1 (single isomer, unassigned) [Compound 179] | 10.00 | 6.13 |

More lines, now with the values ahead:

| pKi [1] | pEC50 [2] | Compound |
| --- | --- | --- |
| 9.57 | < 5.00 | Oc1cncc2nc(-c3ccncc3)nc(N3CCC4(CCNC4)CC3)c12 [Compound 249, 2-(Pyridin-4-yl)-4-(2,8-diazaspiro[4.5]decan-8-yl)pyrido[3,4-d]pyrimidin-5-ol] |
| 9.96 | 6.38 | OC1(CN2CCC3(CCN(c4nc(-c5ccncc5)nc5cnccc45)CC3)C2)COC1 [Example 211, 3-((8-(2-(Pyridin-4-yl)pyrido[3,4-d]pyrimidin-4-yl)-2,8-diazaspiro[4.5]decan-2-yl)methyl)oxetan-3-ol] |
| 8.57 | < 5.00 | FC1(F)CNCC12CCN(c1nc(-c3ccncc3)nc3cnccc13)CC2 [Example 223, 4-(4,4-difluoro-2,8-diazaspiro[4.5]decan-8-yl)-2-(pyridin-4-yl)pyrido[3,4-d]pyrimidine] |
| 10.26 | 5.40 | c1cc(-c2nc(N3CCC4(CCNC4)CC3)c3c(OC4COC4)cncc3n2)ccn1 [Compound 260, 5-(Oxetan-3-yloxy)-2-(pyridin-4-yl)-4-(2,8-diazaspiro[4.5]decan-8-yl)pyrido[3,4-d]pyrimidine] |
| 10.00 | 6.47 | COC[C@@H]1CC2(CCN(c3nc(-c4ccncc4)nc4cnccc34)CC2)CN1 (single isomer, unassigned) [Example 222] |
| 8.74 | 5.72 | CN(C)c1cncc2nc(-c3ccncc3)nc(N3CCC4(CCNC4)CC3)c12 [Compound 258, N,N-Dimethyl-2-(pyridin-4-yl)-4-(2,8-diazaspiro[4.5]decan-8-yl)pyrido[3,4-d]pyrimidin-5-amine] |
| 8.35 | 5.28 | COc1cncc2nc(-c3ccncc3)nc(N3CCC4(CCNC4=O)CC3)c12 [Compound 279, 8-(5-methoxy-2-(pyridin-4-yl)pyrido[3,4-d]pyrimidin-4-yl)-2,8-diazaspiro[4.5]decan-1-one] |
| 10.33 | 6.62 | COc1cncc2nc(-c3c[nH]nc3C)nc(N3CCC4(CCN(CC(C)(C)O)C4)CC3)c12 [Compound 265, 1-(8-(5-methoxy-2-(3-methyl-1H-pyrazol-4-yl)pyrido[3,4-d]pyrimidin-4-yl)-2,8-diazaspiro[4.5]decan-2-yl)-2-methylpropan-2-ol] |
